{"source": "patent US20090131406A1", "about": "(BAYER CROPSCIENCE AG, priority 2005, published 2009)", "experiment_in_all_cases": "LIVE/DEAD cytotoxicity assay, inhibition of cell proliferation", "type_in_all_cases": "cell-based, human", "conditions_in_all_cases": "48 hours of incubation, calcein-AM fluorescence, cell growth reduced by 50% compared to control", "key": {"SW620 cells": {"tested_on": "SW620 cells", "procedure": "(§1) The compounds of the general formula (I) according to the invention were tested for a possible cytotoxic or proliferation-inhibiting activity on the human tumour cell lines HeLa, SW620 and A375 (all from ATTC, American Type Culture Collection). To this end, the cells were plated in microtitre plates from Greiner (Manufacturer No. 781092) at a cell density of 1000 cells/microtitre plate well and cultivated in cell culture medium at 37° C. under a 5% carbon dioxide atmosphere. Cell culture media and additives were purchased from Invitrogen and the foetal calf serum from Biochrom. The cell culture media for Hela and A375 cells were used as stated by ATCC (HeLa: MEM, Order No. 10370-047, with 1% sodium bicarbonate, 1% non-essential amino acids, 1% sodium pyruvate, 10% foetal calf serum, 0.1% gentamycin; A375: DMEM, Order No. 41965-039, 2% sodium bicarbonate, 1% L-Glutamax, 10% foetal calf serum, 0.1% gentamycin). The culture medium for the SW620 cells consisted of DMEM, Order No. 41965-039, 1% non-essential amino acids, 10% foetal calf serum, 0.1% gentamycin.\n(§2) 24 hours after the cells had been plated in the microtitre plates, various concentrations of at most 100 μM down to a minimum concentration of 5 nM of the test compounds were added to the cells. Stock solutions of the test compounds (10 mM) were prepared in DMSO and stored at −20° C.; for the cytotoxicity tests, the test compounds were diluted in the appropriate cell culture medium.\n(§3) After a further 48 hours of incubation, the cells were washed with medium and analysed with the aid of a two-colour fluorescence cytotoxicity/viability test (LIVE/DEAD viability/cytotoxicity ASSAY kit from Molecular Probes, Order No. L-3224), according to the instructions of the manufacturer. To this end, the medium was aspirated and in each case 30 μl of LIVE/DEAD reagent per microtitre plate well were added to the cells, which were then incubated for 30 minutes. The cells were then washed with PBS (phosphate-buffered saline). The number of live cells was analysed by measuring the green fluorescence of the live dye calcein-AM as a component of the LIVE/DEAD reagent using a fluorescence plate reader (Flexstation, from Molecular Devices) at an excitation wavelength of 485 nm and an emission wavelength of 525 nm (cf. Oral, H. B. Endothelium 6, (1998), 143-151).\n(§4) Cells only with cell culture medium, without added test compounds, were treated in parallel and analysed as growth controls. The reference compounds used for anti-tumour agents having a cytotoxic or proliferation-inhibiting action were colchicine (from Merck/Calbiochem, Order No. 234115) and Taxol (baccatin III N-benzyl-b-phenylisoserine ester, from Merck/Calbiochem, Order No. 580555) (cf. Schiff, P. B. and Horwitz, S. B., Proceedings of the National Academy of Sciences of the U.S.A. 77, 1561-1565, 1980; Holmes, F. A. et al., Journal of the National Cancer Institute 83, 1797-1805, 1991).\n(§5) The cytotoxic effects of the test compounds were expressed as logarithmic GI50 values (growth-inhibiting logarithmic concentration value at which a cell growth reduced by 50% compared to the control without test compounds was measured (cf. Xia et al., Journal of Medicinal Chemistry 44, 3932-3936, 2001; Smith, J. A. et al., Gynecologic Oncology 98, 141-145, 2005))."}, "A375 cells": {"tested_on": "A375 cells", "procedure": "as §1, §2, §3, §4, §5"}, "HeLa cells": {"tested_on": "HeLa cells", "design": "log GI50 values (M), HeLa cells: unit not given here", "procedure": "as §1\n24 hours after the cells had been plated in the microtitre plates, various concentrations of at most 100 μM down to a minimum concentration of 5 nM of the test compounds were added to the cells. […]\nas §3, with “To this end, the medium was aspirated and in each case 30 μl of LIVE/DEAD reagent per microtitre plate well were added to the cells, which were then incubated for 30 minutes. The cells were then washed with PBS (phosphate-buffered saline).” left out\nCells only with cell culture medium, without added test compounds, were treated in parallel and analysed as growth controls. […]"}}, "data": [{"compound": "CO[C@@H]1[C@@H](OC)[C@H](O[C@@H]2CC(=O)[C@@H]3CCN(Cc4cc5c(cc43)OCO5)C(=O)[C@H]2O)O[C@H](CO)[C@H]1OC", "note": "[Cripowellin II, cripowellin II]", "values": [{"measurement": "log GI50 values (M), SW620 cells", "setting": "SW620 cells", "result": "6.9 -log M"}, {"measurement": "log GI50 values (M), A375 cells", "setting": "A375 cells", "result": 8.0, "unit": "M"}, {"measurement": "log GI50 values (M), HeLa cells", "setting": "HeLa cells", "result": 8.7}]}]}
